Measured values: patent publication US8062651B1, “Attractant pheromone for the male pink hibiscus mealybug, Maconellicoccus hirsutus (Green) (Homoptera: Pseudococcidae)” (The United States of America as represented by the …, priority 2004, dated 2011)

What was measured:
[1] = system: male M. hirsutus antennae; test: Coupled GC-EAD of male antennae; design: species or system Maconellicoccus hirsutus; conditions: GC-EAD of female airborne extracts
Description: Analytical Methods: The coupled gas chromatographic-electroantennographic detection (GC-EAD) system used was as previously described (Zhang, A., et al., J. Chem. Ecol., 23: […] (1997); Zhang, A., et al., J. Chem. Ecol., 25: 1221-1232 (1999); Zhang, A., and S. Polavarapu, J. Chem. Ecol., 29: 2153-2164 (2003)). A HP 6890 GC equipped with a 60 m×0.25-mm ID, 0.25-μm film-thickness DB-WAXETR (J&W Scientific Inc., Folsom, Calif.) capillary column in the splitless mode with hydrogen (1.4 ml/min) as carrier was used for analysis. The column temperature program was hold at 80° C. for 2 min, then heated to 250° C. at 15° C./min and held for 15 min. Electron impact mass spectrometry (EI mass) was conducted on a HP 6890 GC coupled to a HP 5973 Mass Selective Detector using an a 60 m×0.25-mm ID, 0.25-μm film-thickness DB-WAXETR capillary column at 50° C. for 2 min, then programmed to 230° C. at 15° C./min and held for 15 min or a 30 m×0.25-mm ID, 0.25-μm film-thickness DB-1 capillary column (50° C. for 2 min, then programmed to 300° C. at 15° C./min and held for 15 min) with helium as carrier gas. […] GC-Fourier transform infrared (FTIR) spectra were recorded on a HP GC coupled to a Bio-Rad IRD II infrared detector using a 60 m DB-WAXETR capillary column with conditions as described as above. […] NMR spectra were recorded in C6D6 solution on a Bruker QE Plus spectrometer at 300 MHz for ^1H. […]

male M. hirsutus = test: Field bioassay: sticky traps baited with rubber septa lures; assay type: in vivo, Maconellicoccus hirsutus; conditions: (R)-lavandulol and (R)-maconelliol together, equal amount to ester, 1 and 10-μg doses, 1:5
Description: Field Bioassays: Gray halo-butyl rubber septa (5 mm, West Pharmaceutical Services, Kearney, Nebr.) loaded with 1 μg of RS, SR, RR, and SS binary diastereoisomeric mixtures of two candidate pheromone compounds placed on white sticky cards (Pherocon V traps, Trécé, Salinas, Calif.) were used for the field trails in Florida. Treatments were arranged in a randomized complete block design with nine replicates and about ˜1 m between traps within replicates. The cards were attached to the top of metal rods and placed one foot above hibiscus plants in a hedgerow. Cards were collected, put separately in transparent plastic bags, and brought back to the laboratory to count the trapped male PHM under a microscope. Comparisons were made between candidate synthetic mixtures and a blank control trap.
Field bioassays: Gray halo-butyl rubber septa (5 mm, West Pharmaceutical Services, Kearney, Nebr.) were soxhlet extracted with acetone for 48 hr and dried in a fume hood before use. The cleaned septa were loaded with the desired rates of candidate pheromone components in ˜40 μl of hexane solution, and used for field tests. The same amount of hexane was loaded on septa for the blank controls. […]

[2] = system: male M. hirsutus antennae; conditions: alcoholic moieties found in volatile extracts; Zhang et al. 2004; cited from earlier work

Compound	EAD response of male M. hirsutus antennae [1]	effect on attraction to the RS isomers (male M. hirsutus)	antennal activity [2]
CC[C@H](C)C(=O)OC[C@@H]1CC(=C(C)C)C1(C)C [compound 2, [(R)-2,2-Dimethyl-3-(1-methylethylidene)cyclobutyl]methyl (S)-2-methylbutanoate]	consistently responded	–	–
C=C(C)[C@@H](CC=C(C)C)COC(=O)[C@@H](C)CC [compound 1, (R)-2-Isopropenyl-5-methylhex-4-enyl (S)-2-methylbutanoate]	consistently responded	–	–
C=C(C)[C@H](CO)CC=C(C)C [(R)-lavandulol, (R)-(−)-lavandulol, reference compound]	–	significantly reduced attraction	did not elicited any antennal activity
CC(C)=C1C[C@@H](CO)C1(C)C [(R)-maconelliol, [(R)-(−)-2,2-Dimethyl-3-(1-methylethylidene)cyclobutyl]methanol]	–	significantly reduced attraction	did not elicited any antennal activity
